Results taken from PubChem BioAssay AID2060490 (Molecular Pharmacology Branch, DTP, NCI, 2025).

Test system: 885512-296-R-J2-PDC complex spheroid viability
Test: Anticancer human tumor 885512-296-R-J2-PDC patient-derived breast carcinoma cell line growth inhibition [GQUAD]
Settings: for IC50: curve of first compound; for viability, T/C: stronger effect = lower value
Method in brief: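 Multi-cell-type spheroids of tumor cells with HUVEC and mesenchymal stem cells, treated with drug combinations. Concentrations descend in half-log steps from near clinical Cmax, or from 10 microM where Cmax is unknown; viability read-out.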

[1] = second compound 0.0316 µM, first compound 0.0316 µM
[2] = second compound 0.0316 µM, first compound 0.1 µM
[3] = second compound 0.0316 µM, first compound 0.316 µM
[4] = second compound 0.0316 µM, first compound 1 µM
[5] = second compound 0.0316 µM, first compound 3.16 µM
[6] = second compound 0.0316 µM, first compound 10 µM
[7] = second compound 0.1 µM, first compound 0.0316 µM
[8] = second compound 0.1 µM, first compound 0.1 µM
[9] = second compound 0.1 µM, first compound 0.316 µM
[10] = second compound 0.1 µM, first compound 1 µM
[11] = second compound 0.1 µM, first compound 3.16 µM
[12] = second compound 0.1 µM, first compound 10 µM
[13] = second compound 0.316 µM, first compound 0.0316 µM
[14] = second compound 0.316 µM, first compound 0.1 µM
[15] = second compound 0.316 µM, first compound 0.316 µM
[16] = second compound 0.316 µM, first compound 1 µM
[17] = second compound 0.316 µM, first compound 3.16 µM
[18] = second compound 0.316 µM, first compound 10 µM
[19] = second compound 1 µM, first compound 0.0316 µM
[20] = second compound 1 µM, first compound 0.1 µM
[21] = second compound 1 µM, first compound 0.316 µM
[22] = second compound 1 µM, first compound 1 µM
[23] = second compound 1 µM, first compound 3.16 µM
[24] = second compound 1 µM, first compound 10 µM
[25] = second compound 3.16 µM, first compound 0.0316 µM
[26] = second compound 3.16 µM, first compound 0.1 µM
[27] = second compound 3.16 µM, first compound 0.316 µM
[28] = second compound 3.16 µM, first compound 1 µM
[29] = second compound 3.16 µM, first compound 3.16 µM
[30] = second compound 3.16 µM, first compound 10 µM
[31] = second compound 10 µM, first compound 0.0316 µM
[32] = second compound 10 µM, first compound 0.1 µM
[33] = second compound 10 µM, first compound 0.316 µM
[34] = second compound 10 µM, first compound 1 µM
[35] = second compound 10 µM, first compound 3.16 µM
[36] = second compound 10 µM, first compound 10 µM
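Also: spheroids exposed to the compounds for one week.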
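For viability, T/C in this document: percent of tumor spheroid viability relative to DMSO vehicle control wells.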

`CC1COCCN1c1cc(-c2ccnn2C)c2ccnc(-c3ccn[nH]3)c2n1` (stereo unspecified) + Cc1cnc(CNC(=O)c2c(=O)c3ccc(N4CCCN(C)CC4)nc3n3c2sc2ccccc23)cn1 gave an IC50 (second compound 0.0316 µM) of less than 0.0316 µM, an IC50 (second compound 0.1 µM) of less than 0.0316 µM and an IC50 (second compound 0.316 µM) of less than 0.0316 µM. For the same compound, the IC50 (second compound 1 µM) was less than 0.0316 µM, the IC50 (second compound 3.16 µM) was less than 0.0316 µM and the IC50 (second compound 10 µM) was less than 0.0316 µM. For the same compound, the viability, T/C [1] was 7.27%, the viability, T/C [2] was 3% and the viability, T/C [3] was 3.14%. The viability, T/C [4] was 2.98%, the viability, T/C [5] was 4.32% and the viability, T/C [6] was 6.71%. The viability, T/C [7] was 7.98%, the viability, T/C [8] was 3.24% and the viability, T/C [9] was 2.68%. For the same compound, the viability, T/C [10] was 3.6%, the viability, T/C [11] was 4.73% and the viability, T/C [12] was 6.8%. The viability, T/C [13] was 6.5%, the viability, T/C [14] was 4.72% and the viability, T/C [15] was 4.23%. For the same compound, the viability, T/C [16] was 4.64%, the viability, T/C [17] was 5.38% and the viability, T/C [18] was 6.91%. It also gave a viability, T/C [19] of 7.32%, a viability, T/C [20] of 5.67% and a viability, T/C [21] of 4.04%. For the same compound, the viability, T/C [22] was 5.5%, the viability, T/C [23] was 6.49% and the viability, T/C [24] was 7.5%. The viability, T/C [25] was 0.41%, the viability, T/C [26] was 0.9% and the viability, T/C [27] was 0.43%. It also gave a viability, T/C [28] of 5.3%, a viability, T/C [29] of 6.82% and a viability, T/C [30] of 6.13%. For the same compound, the viability, T/C [31] was 0.03%, the viability, T/C [32] was 0.1% and the viability, T/C [33] was 0.12%. It also gave a viability, T/C [34] of 0.06%, a viability, T/C [35] of 0.1% and a viability, T/C [36] of 0.11%.
For `CCCS(=O)(=O)Nc1ccc(F)c(C(=O)c2c[nH]c3ncc(-c4ccc(Cl)cc4)cc23)c1F` + CN(C)c1ccc(Nc2c3ccc(NC(=O)CCN4CCCC4)cc3nc3cc(NC(=O)CCN4CCCC4)ccc23)cc1, the IC50 (second compound 0.0316 µM) was 8.18 µM, the IC50 (second compound 0.1 µM) was 7.89 µM and the IC50 (second compound 0.316 µM) was 8.45 µM. It also gave an IC50 (second compound 1 µM) of 6.7 µM, an IC50 (second compound 3.16 µM) of 3.75 µM and an IC50 (second compound 10 µM) of less than 0.0316 µM. For the same compound, the viability, T/C [1] was 105%, the viability, T/C [2] was 90% and the viability, T/C [3] was 109%. It also gave a viability, T/C [4] of 104%, a viability, T/C [5] of 106% and a viability, T/C [6] of 38.9%. For the same compound, the viability, T/C [7] was 101%, the viability, T/C [8] was 119% and the viability, T/C [9] was 124%. The viability, T/C [10] was 117%, the viability, T/C [11] was 89% and the viability, T/C [12] was 39.8%. The viability, T/C [13] was 118%, the viability, T/C [14] was 102% and the viability, T/C [15] was 111%. It also gave a viability, T/C [16] of 104%, a viability, T/C [17] of 104% and a viability, T/C [18] of 40.7%. It also gave a viability, T/C [19] of 95%, a viability, T/C [20] of 102% and a viability, T/C [21] of 103%. For the same compound, the viability, T/C [22] was 94.1%, the viability, T/C [23] was 119% and the viability, T/C [24] was 21.9%. For the same compound, the viability, T/C [25] was 117%, the viability, T/C [26] was 104% and the viability, T/C [27] was 126%. For the same compound, the viability, T/C [28] was 111%, the viability, T/C [29] was 57.6% and the viability, T/C [30] was 6.03%. It also gave a viability, T/C [31] of 17.6%, a viability, T/C [32] of 16.4% and a viability, T/C [33] of 15.7%. The viability, T/C [34] was 14.2%, the viability, T/C [35] was 8.35% and the viability, T/C [36] was 1.3%.
`Cc1cccc(N(C)C(=O)C2C(O)CCN2c2nc(C)cc(C(F)(F)F)c2C#N)c1` (stereo unspecified) + CN(C)c1ccc(Nc2c3ccc(NC(=O)CCN4CCCC4)cc3nc3cc(NC(=O)CCN4CCCC4)ccc23)cc1 showed an IC50 (second compound 0.0316 µM) greater than 10 µM, an IC50 (second compound 0.1 µM) greater than 10 µM and an IC50 (second compound 0.316 µM) greater than 10 µM. The IC50 (second compound 1 µM) was greater than 10 µM, the IC50 (second compound 3.16 µM) was greater than 10 µM and the IC50 (second compound 10 µM) was less than 0.0316 µM. For the same compound, the viability, T/C [1] was 101%, the viability, T/C [2] was 89.8% and the viability, T/C [3] was 106%. For the same compound, the viability, T/C [4] was 102%, the viability, T/C [5] was 113% and the viability, T/C [6] was 97.7%. It also gave a viability, T/C [7] of 110%, a viability, T/C [8] of 106% and a viability, T/C [9] of 102%. For the same compound, the viability, T/C [10] was 87.3%, the viability, T/C [11] was 104% and the viability, T/C [12] was 91.7%. The viability, T/C [13] was 111%, the viability, T/C [14] was 99.6% and the viability, T/C [15] was 106%. For the same compound, the viability, T/C [16] was 97.8%, the viability, T/C [17] was 101% and the viability, T/C [18] was 96.8%. The viability, T/C [19] was 88.5%, the viability, T/C [20] was 105% and the viability, T/C [21] was 95.1%. It also gave a viability, T/C [22] of 93.2%, a viability, T/C [23] of 84.6% and a viability, T/C [24] of 80.8%. For the same compound, the viability, T/C [25] was 94.8%, the viability, T/C [26] was 96.5% and the viability, T/C [27] was 108%. For the same compound, the viability, T/C [28] was 86.8%, the viability, T/C [29] was 96.2% and the viability, T/C [30] was 62.2%. It also gave a viability, T/C [31] of 23.6%, a viability, T/C [32] of 22.4% and a viability, T/C [33] of 18.6%. For the same compound, the viability, T/C [34] was 19.3%, the viability, T/C [35] was 15.8% and the viability, T/C [36] was 5.88%.
